Measured values: publication PMC11789008 (Proceedings of the National Academy of Sciences of the …, 2025)
No end group written: not given here.

Assays:
[1] = powder and solution form
[2] = molecular target: SARS-CoV-2 spike RBD, WT (Severe acute respiratory syndrome coronavirus 2, UniProt P0DTC2); assay: biochemical
[3] = molecular target: SARS-CoV-2 spike ectodomain trimer with the BA.2-type RBD (SARS-CoV-2) (UniProt P0DTC2); assay: cryo-EM structure
[4] = molecular target: SARS-CoV-2 spike ectodomain trimer with the BA.5-type RBD (SARS-CoV-2) (UniProt P0DTC2); assay: cryo-EM structure

For “DKLWILQKIYEIMVRLDEEGHGEASLMVSDLIYEFMKRD [CeSPIACE]”, the stability [1] was “stability has been confirmed in powder and solution form” and the Kd [2] was 0.246 ± 0.002 nM.

“SARS-CoV-2 spike ectodomain trimer with the BA.2-type RBD (from UniProt P0DTC2 13-1208) (domain or fragment)” showed a stoichiometry N [3] of 3.

Substance “SARS-CoV-2 spike ectodomain trimer with the BA.5-type RBD (from UniProt P0DTC2 13-1208) (domain or fragment)” has a stoichiometry N [4] of 3.
